Reference: PMC8126241, “Active Components from Cassia abbreviata Prevent HIV-1 Entry by Distinct Mechanisms of Action” (International Journal of Molecular Sciences, 2021)
Where two headings read alike, the source gives them in different places.

Assays:
PBMCs = format: cell-based, human
Method: To assess drug cytotoxicity, PBMCs were incubated with or without drugs in a 96-well round bottom plate (Thermo Fisher, Asse, Belgium) at 2 × 10^5/200 μL/well. After 2 days, cells were washed with PBS and stained with 0.1 μL near-IR fluorescent reactive dye (Life technologies, Ghent, Belgium) in 100 μL PBS for 20 min at room temperature in dark. Stained cells were measured by flow cytometry (FACSCanto, BD biosciences, Belgium).

[1] = test system: HIV-1 gp120 / CD4 binding; assay: CD4-gp120 interaction assay (ELISA); conditions: in-house ELISA
Method: Human soluble CD4 (sCD4) was immobilized in a 96-well plate by adding 100 ng sCD4 (R&D Systems, Belgium) in 100 μL PBS per well and incubated at 4 °C. After 24 h, the CD4 coated plate was washed with 1% BSA-PBS and blocked by adding 100μL 5% BSA-PBS per well for 1 h at 4 °C. The coated plate was then washed and incubated with or without drugs for 1 h at 4 °C. After washing, 100 ng HIV-1 gp120 protein (Fitzgerald, Acton, MA, USA) was added into the plate and kept for 1 h at 4 °C. The plate was washed, and anti-HIV-1 gp120 (Aalto Bio Reagents, Dublin, Ireland) (100 ng/100 μL PBS) was added. After 1 h, the plate was washed and anti-sheep HRP (Sigma, Belgium) (100 ng/100 μL PBS) was added. After 1 h incubation at 4 °C, 100 μL o-phenylenediamine dihydrochloride (OPD) (Thermo Fisher, Asse, Belgium) was added and incubated for 20 min in dark. One hundred microliters 0.5M H2SO4 was finally added to stop the reaction. OD492 and OD630 were measured by POLARstart Omega Plate Reader. OD492 − OD630 was calculated.

CXCR4 = biological target: T1, CXCR4 (Homo sapiens, UniProt P61073); assay: Binding competition with anti-CXCR4 antibody 12G5; conditions: anti-CXCR4 antibody 12G5, U373-CD4-CXCR4 cells
T1 construct: host or cells: U373-CD4-CXCR4 cells

[2] = test system: Herpes simplex virus-1 (KOS); assay: Broad spectrum antiviral activity, HEL cells; format: cell-based
[3] = test system: Herpes simplex virus-2 (G); assay: Broad spectrum antiviral activity, HEL cells; format: cell-based; conditions: Human alphaherpesvirus 2, HEL
[4] = test system: Vesicular stomatitis virus; assay: microbe, parasite or virus in culture; format: cell-based
[5] = test system: Influenza A/H3N2 A/HK/7/87; assay: Broad spectrum antiviral activity, MDCK cells; format: cell-based; conditions: Influenza A virus
Influenza B B/Ned/537/05 = assay: microbe, parasite or virus in culture; format: cell-based; conditions: MDCK cells
Coxsackie virus B4 [6] = assay: Broad spectrum antiviral activity, HeLa cells; format: cell-based; conditions: Enterovirus B
Coxsackie virus B4 [7] = assay: Broad spectrum antiviral activity, vero cells; format: cell-based; conditions: Enterovirus B
[8] = test system: Respiratory syncytial virus; assay: Broad spectrum antiviral activity, HeLa cells; format: cell-based; conditions: human respiratory syncytial virus
Para-influenza-3 virus = assay: organism not typed; format: cell-based; conditions: vero cells
Reovirus-1 = assay: Broad spectrum antiviral activity, vero cells; format: cell-based
sindbisvirus = assay: Broad spectrum antiviral activity, vero cells; format: cell-based
Punta toro virus = assay: Broad spectrum antiviral activity, vero cells; format: cell-based
Yellow fever virus = assay: microbe, parasite or virus in culture; format: cell-based; conditions: Vero
Feline herpes virus = assay: Broad spectrum antiviral activity, CRFK cells; format: cell-based
HIV-1 ADA-M [9] = assay: Dual chamber transmission assay, HeLa upper chamber / TZM-bl lower chamber; format: cell-based; conditions: dual-chamber system, at IC50 concentration
Method: (§1) Dual chamber transmission assay was performed as previously described. HeLa cells were seeded into an upper chamber of a transwell plate (Sigma-Aldrich, Liège, Belgium), while TZM-bl cells were seeded in the lower chamber. Trans Epithelial Electric Resistance (TEER) was measured using Millicell-ERS Volt-Ohm Meter. HIV-1 ADA-M (200 pg) and drugs were added to the upper chamber after 4 days when TEER reached 150 Ohm/cm^2. 24 h after infection luciferase value of TZM-bl cells lysate was measured using the Luciferase System Kit and the POLARstar Omega Plate Reader. Data were analyzed using GraphPrism. The HIV-1 DC-SIGN transmission assay was performed as previously described.

HeLa cells = test system: HeLa cells
Method: as §1

[10] = test system: DC-SIGN-captured virus transmission to CD4+ T cells; assay: HIV-1 DC-SIGN transmission assay; format: cell-based; conditions: in vitro, data not shown
Method: as §1

[11] = test system: pseudotype virus pNL4.3ΔEnvLuc-HXB2; conditions: multi-dosing time assay
HIV-1 IIIB = assay: microbe, parasite or virus in culture; conditions: Human immunodeficiency virus 1, IIIB, PBMC, 168 h, read-out: IC50 HIV-1 IIIB
HIV-1 ADA-M [12] = assay: microbe, parasite or virus in culture; conditions: Human immunodeficiency virus 1, PBMC, 168 h, read-out: IC50 HIV-1 ADA-M
[13] = test system: non-B HIV-1 primary clinical isolate #1; assay: microbe, parasite or virus in culture; conditions: Human immunodeficiency virus 1, PBMC, 168 h, read-out: IC50 non-B HIV-1 primary clinical isolate (first named)
[14] = test system: non-B HIV-1 primary clinical isolate #2; assay: microbe, parasite or virus in culture; conditions: Human immunodeficiency virus 1, PBMC, 168 h, read-out: IC50 non-B HIV-1 primary clinical isolate (second named)

T1 sequence (P61073 whole entry): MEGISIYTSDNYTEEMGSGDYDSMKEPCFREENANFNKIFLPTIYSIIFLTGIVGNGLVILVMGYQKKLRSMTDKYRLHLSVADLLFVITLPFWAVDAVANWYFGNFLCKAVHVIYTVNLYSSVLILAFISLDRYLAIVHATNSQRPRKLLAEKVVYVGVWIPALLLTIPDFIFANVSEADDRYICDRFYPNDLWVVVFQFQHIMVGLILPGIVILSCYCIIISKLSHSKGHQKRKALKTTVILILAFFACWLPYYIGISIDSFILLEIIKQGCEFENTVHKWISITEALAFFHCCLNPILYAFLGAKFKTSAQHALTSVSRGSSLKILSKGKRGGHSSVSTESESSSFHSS

With `Oc1cc(O)cc(/C=C/c2ccc(O)c(O)c2)c1` [piceatannol, trans-3,3′,4,5′-tetrahydroxystilbene] the “Cytotoxicity in PBMCs” value (PBMCs) was “not cytotoxic”, the “Inhibition of gp120/CD4 binding” value [1] was “did not” and the “Inhibition of CXCR4 binding” value (CXCR4) was “neither CE nor piceatannol did”. For the same compound, the IC50 [2] was 47.5 ± 3.5 µM, the IC50 ([2]; Human alphaherpesvirus 1, HEL) was about 45 µM and the IC50 [3] was about 45 µM. The IC50 [4] was 79.2 ± 17 µM, the IC50 ([4]; Vesicular stomatitis virus, U-87 MG) was 79.2 ± 17.2 µM and the IC50 [5] was over 100 µM. For the same compound, the IC50 (Influenza B B/Ned/537/05) was over 100 µM, the IC50 (Coxsackie virus B4 [6]) was over 100 µM and the IC50 (Coxsackie virus B4 [7]) was over 100 µM. For the same compound, the IC50 [8] was over 100 µM, the IC50 (Para-influenza-3 virus) was over 100 µM and the IC50 (Reovirus-1) was over 100 µM. For the same compound, the IC50 (sindbisvirus) was over 100 µM, the IC50 (Punta toro virus) was over 100 µM and the IC50 (Yellow fever virus) was over 100 µM. The IC50 (Feline herpes virus) was over 100 µM, the “Decrease of HIV-1 infection” value (HIV-1 ADA-M [9]) was 33% and the “HIV-1 infection of TZM-Bl cells relative to control (100)” value (HIV-1 ADA-M [9]; 24 h post-infection) was 66.9%. For the same compound, the “Effect on confluence layer's TEER and epithelial cells viability” value (HeLa cells) was “without affecting”, the “Prevention of transmission of DC-SIGN-captured virus to CD4+ T cells” value [10] was “did not prevent” and the “Inhibitory effect when added after infection” value ([11]; 2 h after spinoculation (post-infection)) was “did not find any effect”. The “Inhibitory effect when pre-incubated with cells” value ([11]; 2 h pre-incubation on cells, HXB2 and BAL pseudotypes) was “inhibited HIV-1 infection at high concentration”, the “Inhibitory effect when pre-incubated with the virus” value ([11]; 2 h pre-incubation on virus, HXB2 and BAL pseudotypes) was “not pre-incubated with the virus” and the IC50 (HIV-1 IIIB) was 24.2 ± 7.13 µM. The IC50 (HIV-1 ADA-M [12]) was 19.9 ± 0.22 µM, the IC50 [13] was 37.7 ± 12.5 µM and the IC50 [14] was 8.04 ± 3.07 µM.
